{"source": "paper PMC11396129", "about": "“Oxindole–benzothiazole hybrids as CDK2 inhibitors and anticancer agents: design, synthesis and biological evaluation” (BMC Chemistry, 2024)", "key": {"[1]": {"target": "CDK1 (Homo sapiens, UniProt P06493)", "sequence (P06493 whole entry, species assumed)": "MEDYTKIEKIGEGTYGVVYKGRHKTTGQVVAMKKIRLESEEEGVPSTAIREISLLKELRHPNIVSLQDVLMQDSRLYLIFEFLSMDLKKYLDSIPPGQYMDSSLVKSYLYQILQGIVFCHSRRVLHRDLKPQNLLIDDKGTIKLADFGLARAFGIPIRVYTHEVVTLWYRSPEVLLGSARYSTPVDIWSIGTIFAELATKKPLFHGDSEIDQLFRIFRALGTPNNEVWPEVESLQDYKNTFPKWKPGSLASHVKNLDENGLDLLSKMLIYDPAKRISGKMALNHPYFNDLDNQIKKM", "sequence (P14635 whole entry partner, species assumed)": "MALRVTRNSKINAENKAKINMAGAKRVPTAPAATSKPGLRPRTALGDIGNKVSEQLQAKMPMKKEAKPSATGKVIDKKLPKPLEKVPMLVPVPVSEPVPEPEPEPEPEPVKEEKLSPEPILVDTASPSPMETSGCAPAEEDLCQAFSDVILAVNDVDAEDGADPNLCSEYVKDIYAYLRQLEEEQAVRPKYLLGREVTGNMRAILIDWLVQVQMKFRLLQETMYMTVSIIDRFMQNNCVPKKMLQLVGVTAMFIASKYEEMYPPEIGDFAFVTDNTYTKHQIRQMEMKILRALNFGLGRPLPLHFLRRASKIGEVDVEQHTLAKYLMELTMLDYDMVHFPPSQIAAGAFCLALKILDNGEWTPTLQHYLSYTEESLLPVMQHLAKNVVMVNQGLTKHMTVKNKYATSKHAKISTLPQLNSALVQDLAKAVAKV", "assay": "Kinase inhibitory activity on CDK1", "format": "biochemical", "settings": "mean of two independent experiments ± SD"}, "[2]": {"target": "T1, CDK2 (Homo sapiens, UniProt P24941)", "T1 construct": "purchased BPS Biosciences 79599", "assay": "CDK2 kinase assay (BPS kit, Kinase-Glo Max)", "format": "biochemical"}, "[3]": {"tested_on": "MALME-3M", "assay": "NCI 60 panel growth inhibition (SRB), melanoma", "format": "cell-based, human", "procedure,_shortened": "(§1)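 Plating density: 5000–40,000 cells/well. Drug: DMSO concentrate diluted into medium plus gentamicin, five levels. Fixation: TCA. Read-out: SRB absorbance, converted to percentage growth against Tz and C.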"}, "[4]": {"tested_on": "SK-MEL-2", "assay": "NCI 60 panel growth inhibition (SRB), melanoma", "format": "cell-based, human", "procedure,_shortened": "as §1"}, "[5]": {"tested_on": "MDA-MB-435", "assay": "NCI 60 panel growth inhibition (SRB), melanoma", "format": "cell-based, human", "procedure,_shortened": "as §1"}, "[6]": {"tested_on": "A549/ATCC", "assay": "NCI 60 panel growth inhibition (SRB), non-small cell lung cancer", "format": "cell-based, human", "procedure,_shortened": "as §1"}, "[7]": {"tested_on": "HOP-92", "assay": "NCI 60 panel growth inhibition (SRB), non-small cell lung cancer", "format": "cell-based, human", "procedure,_shortened": "as §1"}, "[8]": {"tested_on": "HOP-62", "assay": "NCI 60 panel growth inhibition (SRB), non-small cell lung cancer", "format": "cell-based, human", "settings": "Homo sapiens; HOP-62, five dose", "procedure,_shortened": "as §1"}, "[9]": {"tested_on": "EKVX", "assay": "NCI 60 panel growth inhibition (SRB), non-small cell lung cancer", "format": "cell-based, human", "procedure,_shortened": "as §1"}, "[10]": {"tested_on": "NCI-H322M", "assay": "NCI 60 panel growth inhibition (SRB), non-small cell lung cancer", "format": "cell-based, human", "procedure,_shortened": "as §1"}, "[11]": {"tested_on": "NCI-H460", "assay": "NCI 60 panel growth inhibition (SRB), non-small cell lung cancer", "format": "cell-based, human", "procedure,_shortened": "as §1"}, "[12]": {"tested_on": "NCI-H23", "assay": "NCI 60 panel growth inhibition (SRB), non-small cell lung cancer", "format": "cell-based, human", "procedure,_shortened": "as §1"}, "[13]": {"tested_on": "NCI-H226", "assay": "NCI 60 panel growth inhibition (SRB), non-small cell lung cancer", "format": "cell-based, human", "procedure,_shortened": "as §1"}, "[14]": {"tested_on": "NCI-H522", "assay": "NCI 60 panel growth inhibition (SRB), non-small cell lung cancer", "format": "cell-based, human", "procedure,_shortened": "as §1"}, "[15]": {"tested_on": "NCI 60 cancer cell line panel", "assay": "NCI 60 panel growth inhibition (SRB), whole panel", "format": "cell-based, human", "procedure,_shortened": "as §1"}, "[16]": {"tested_on": "SNB-19", "assay": "NCI 60 panel growth inhibition (SRB), CNS cancer", "format": "cell-based, human", "procedure,_shortened": "as §1"}, "[17]": {"tested_on": "SF-295", "assay": "NCI 60 panel growth inhibition (SRB), CNS cancer", "format": "cell-based, human", "procedure,_shortened": "as §1"}, "[18]": {"tested_on": "SNB-75", "assay": "NCI 60 panel growth inhibition (SRB), CNS cancer", "format": "cell-based, human", "settings": "SNB-75, 10 μM", "procedure,_shortened": "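Two-stage NCI process: single-dose screen, then five-concentration testing of selected compounds. Growth relative to time-zero and untreated controls was derived from SRB absorbance, and TGI from the concentration giving Ti = Tz.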"}, "[19]": {"tested_on": "SF-268", "assay": "NCI 60 panel growth inhibition (SRB), CNS cancer", "format": "cell-based, human", "procedure,_shortened": "as §1"}, "[20]": {"tested_on": "SF-539", "assay": "NCI 60 panel growth inhibition (SRB), CNS cancer", "format": "cell-based, human", "procedure,_shortened": "as §1"}, "[21]": {"tested_on": "U251", "assay": "NCI 60 panel growth inhibition (SRB), CNS cancer", "format": "cell-based, human", "procedure,_shortened": "as §1"}, "[22]": {"tested_on": "COLO 205", "assay": "NCI 60 panel growth inhibition (SRB), colon cancer", "format": "cell-based, human", "settings": "Homo sapiens; COLO 205, five dose", "procedure,_shortened": "as §1"}, "[23]": {"tested_on": "SW-620", "assay": "NCI 60 panel growth inhibition (SRB), colon cancer", "format": "cell-based, human", "procedure,_shortened": "as §1"}, "[24]": {"tested_on": "HT29", "assay": "NCI 60 panel growth inhibition (SRB), colon cancer", "format": "cell-based, human", "procedure,_shortened": "as §1"}, "[25]": {"tested_on": "HCT-15", "assay": "NCI 60 panel growth inhibition (SRB), colon cancer", "format": "cell-based, human", "procedure,_shortened": "as §1"}, "[26]": {"tested_on": "HCC-2998", "assay": "NCI 60 panel growth inhibition (SRB), colon cancer", "format": "cell-based, human", "procedure,_shortened": "as §1"}, "[27]": {"tested_on": "KM12", "assay": "NCI 60 panel growth inhibition (SRB), colon cancer", "format": "cell-based, human", "procedure,_shortened": "as §1"}, "[28]": {"tested_on": "HCT-116", "assay": "NCI 60 panel growth inhibition (SRB), colon cancer", "format": "cell-based, human", "procedure,_shortened": "as §1"}}}
{"smiles": "COc1ccc2c(c1)C(=NNC(=O)COc1cc(-c3nc4ccccc4s3)ccc1OC)C(=O)N2", "note": "[Compound 9o, 2-(5-(Benzo[d]thiazol-2-yl)-2-methoxyphenoxy)-N′-(5-methoxy-2-oxoindolin-3-ylidene)acetohydrazide]", "values": [{"measurement": "IC50", "setting": "[1]", "result": "1.19 ± 0.1", "unit": "µM"}, {"measurement": "kinase selectivity", "setting": "[2]; from IC50 of Tables 4 and 5", "result": "higher selectivity toward CDK2 and CDK5 over CDK1, VEGFR-2 and FGFR-1"}, {"measurement": "IC50", "setting": "[2]; mean of two independent experiments ± SD", "result": "0.21 ± 0.015", "unit": "µM"}, {"measurement": "GI%", "setting": "[3]; 10 μM", "result": 35.23, "unit": "%"}, {"measurement": "GI50", "setting": "[3]; Homo sapiens, five dose", "result": 2.28, "unit": "µM"}, {"measurement": "GI50", "setting": "[4]; Homo sapiens, SK-MEL-2, five dose", "result": "> 100", "unit": "µM"}, {"measurement": "GI%", "setting": "[4]; SK-MEL-2, 10 μM", "result": 26.06, "unit": "%"}, {"measurement": "GI50", "setting": "[5]; Homo sapiens, MDA-MB-435, five dose", "result": 20.6, "unit": "µM"}, {"measurement": "GI%", "setting": "[5]; MDA-MB-435, 10 μM", "result": 96.57, "unit": "%"}, {"measurement": "GI%", "setting": "[6]; 10 μM", "result": 39.87, "unit": "%"}, {"measurement": "GI50", "setting": "[6]; Homo sapiens, five dose", "result": 30.9, "unit": "µM"}, {"measurement": "GI%", "setting": "[7]; HOP-92, 10 μM", "result": 15.22, "unit": "%"}, {"measurement": "GI50", "setting": "[7]; Homo sapiens, HOP-92, five dose", "result": 51.9, "unit": "µM"}, {"measurement": "GI50", "setting": "[8]", "result": 7.84, "unit": "µM"}, {"measurement": "GI%", "setting": "[9]; 10 μM", "result": 55.62, "unit": "%"}, {"measurement": "GI50", "setting": "[9]; Homo sapiens, five dose", "result": 20, "unit": "µM"}, {"measurement": "GI%", "setting": "[10]; 10 μM", "result": 9.70, "unit": "%"}, {"measurement": "GI50", "setting": "[10]; Homo sapiens, five dose", "result": "> 100", "unit": "µM"}, {"measurement": "GI50", "setting": "[11]; Homo sapiens, NCI-H460, five dose", "result": 9.26, "unit": "µM"}, {"measurement": "GI%", "setting": "[11]; NCI-H460, 10 μM", "result": 106.89, "unit": "%"}, {"measurement": "GI50", "setting": "[12]; Homo sapiens, NCI-H23, five dose", "result": 3.03, "unit": "µM"}, {"measurement": "GI%", "setting": "[12]; NCI-H23, 10 μM", "result": 84.74, "unit": "%"}, {"measurement": "GI50", "setting": "[13]; Homo sapiens, NCI-H226, five dose", "result": 21.3, "unit": "µM"}, {"measurement": "GI%", "setting": "[13]; NCI-H226, 10 μM", "result": 5.08, "unit": "%"}, {"measurement": "GI50", "setting": "[14]; Homo sapiens, NCI-H522, five dose", "result": 48, "unit": "µM"}, {"measurement": "GI%", "setting": "[14]; NCI-H522, 10 μM", "result": 5.70, "unit": "%"}, {"measurement": "GI50", "setting": "[15]; Homo sapiens, five dose, NCI cancer cell lines, read-out: GI50 reached (most sensitive NCI cell line)", "result": 2.02, "unit": "µM"}, {"measurement": "Mean GI%", "setting": "[15]; mean over NCI 60 panel, 10 μM", "result": 55.91, "unit": "%"}, {"measurement": "melting point", "result": "199 to 201", "unit": "°C"}, {"measurement": "GI50", "setting": "[16]; Homo sapiens, SNB-19, five dose", "result": 5.72, "unit": "µM"}, {"measurement": "GI%", "setting": "[16]; SNB-19, 10 μM", "result": 49.50, "unit": "%"}, {"measurement": "GI50", "setting": "[17]; Homo sapiens, SF-295, five dose", "result": 11.8, "unit": "µM"}, {"measurement": "GI%", "setting": "[17]; SF-295, 10 μM", "result": 31.59, "unit": "%"}, {"measurement": "GI%", "setting": "[18]", "result": "– (GI% < 5%)"}, {"measurement": "GI50", "setting": "[19]; Homo sapiens, SF-268, five dose", "result": "> 100", "unit": "µM"}, {"measurement": "GI%", "setting": "[19]; SF-268, 10 μM", "result": 51.91, "unit": "%"}, {"measurement": "GI50", "setting": "[20]; Homo sapiens, SF-539, five dose", "result": 39.9, "unit": "µM"}, {"measurement": "GI%", "setting": "[20]; SF-539, 10 μM", "result": 12.44, "unit": "%"}, {"measurement": "GI50", "setting": "[21]; Homo sapiens, U-251, U251, five dose", "result": 2.02, "unit": "µM"}, {"measurement": "GI%", "setting": "[21]; U251, 10 μM", "result": 143.46, "unit": "%"}, {"measurement": "GI50", "setting": "[22]", "result": 10.6, "unit": "µM"}, {"measurement": "GI50", "setting": "[23]; Homo sapiens, SW-620, five dose", "result": 2.27, "unit": "µM"}, {"measurement": "GI%", "setting": "[23]; SW-620, 10 μM", "result": 148.26, "unit": "%"}, {"measurement": "GI%", "setting": "[24]; HT29, 10 μM", "result": 20.32, "unit": "%"}, {"measurement": "GI50", "setting": "[24]; Homo sapiens, HT-29, HT29, five dose", "result": 26.8, "unit": "µM"}, {"measurement": "GI%", "setting": "[25]; HCT-15, 10 μM", "result": 127.40, "unit": "%"}, {"measurement": "GI50", "setting": "[25]; Homo sapiens, HCT-15, five dose", "result": 3.6, "unit": "µM"}, {"measurement": "GI%", "setting": "[26]; HCC-2998, 10 μM", "result": 44.35, "unit": "%"}, {"measurement": "GI50", "setting": "[26]; Homo sapiens, HCC-2998, five dose", "result": 5.34, "unit": "µM"}, {"measurement": "GI50", "setting": "[27]; Homo sapiens, KM12, five dose", "result": "> 100", "unit": "µM"}, {"measurement": "GI%", "setting": "[27]; KM12, 10 μM", "result": 36.53, "unit": "%"}, {"measurement": "GI%", "setting": "[28]; HCT-116, 10 μM", "result": 87.90, "unit": "%"}, {"measurement": "GI50", "setting": "[28]; Homo sapiens, HCT-116, five dose", "result": 4.5, "unit": "µM"}]}
